Here are results for eight compounds from patent publication US11370794B2, “Toll-like receptor antagonist compounds and methods of use” (Dynavax Technologies Corporation, priority 2016, dated 2022).

The target in one assay is T1, human TLR7 (Homo sapiens, UniProt Q9NYK1).
T1 construct: Human plasmacytoid dendritic cells were plated into 96 well plates; endogenous in cells; host or cells: primary human plasmacytoid dendritic cells from buffy coats of healthy donors
T1 sequence (Q9NYK1 27-1049): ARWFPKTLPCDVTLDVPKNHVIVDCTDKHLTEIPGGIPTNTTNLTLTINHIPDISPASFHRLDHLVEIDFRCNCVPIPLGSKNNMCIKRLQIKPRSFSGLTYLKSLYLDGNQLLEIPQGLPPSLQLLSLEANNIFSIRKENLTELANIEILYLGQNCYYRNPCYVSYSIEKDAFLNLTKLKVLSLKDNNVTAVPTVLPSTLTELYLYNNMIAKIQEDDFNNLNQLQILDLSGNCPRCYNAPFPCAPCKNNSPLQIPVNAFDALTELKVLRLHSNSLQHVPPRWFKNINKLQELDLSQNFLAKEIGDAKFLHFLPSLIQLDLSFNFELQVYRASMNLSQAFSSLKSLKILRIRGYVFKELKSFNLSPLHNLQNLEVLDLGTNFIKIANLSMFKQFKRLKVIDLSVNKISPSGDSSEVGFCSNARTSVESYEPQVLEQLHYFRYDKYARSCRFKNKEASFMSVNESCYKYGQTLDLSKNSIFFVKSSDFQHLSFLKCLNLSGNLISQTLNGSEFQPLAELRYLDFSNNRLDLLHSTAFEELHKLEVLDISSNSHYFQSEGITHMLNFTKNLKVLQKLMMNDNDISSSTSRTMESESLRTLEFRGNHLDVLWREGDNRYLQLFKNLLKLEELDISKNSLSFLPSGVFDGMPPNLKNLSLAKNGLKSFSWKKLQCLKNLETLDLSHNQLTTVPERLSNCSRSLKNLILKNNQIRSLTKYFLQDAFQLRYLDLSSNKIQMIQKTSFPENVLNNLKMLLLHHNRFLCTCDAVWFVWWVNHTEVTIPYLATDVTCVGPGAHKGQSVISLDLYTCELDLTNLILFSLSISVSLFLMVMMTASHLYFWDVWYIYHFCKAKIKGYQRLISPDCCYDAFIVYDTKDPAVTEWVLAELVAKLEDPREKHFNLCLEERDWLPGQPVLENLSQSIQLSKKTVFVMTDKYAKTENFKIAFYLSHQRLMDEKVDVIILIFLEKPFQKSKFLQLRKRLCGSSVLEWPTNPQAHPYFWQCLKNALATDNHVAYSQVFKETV
The assay is described as follows: Inhibition of human TLR7 in human plasmacytoid dendritic cells (interferon-alpha ELISA). In kind it is cell-based. To be noted: agonist heat inactivated influenza virus, 24 hours. For orientation: In an ELISA, binding on a coated surface is turned into a signal by an enzyme label.

For another assay, the target named is T2, human TLR9 (Homo sapiens, UniProt Q9NR96).
T2 construct: endogenous in cells; host or cells: primary human B cells (CD19 microbeads) from buffy coats of healthy donors
T2 sequence (Q9NR96 26-1032): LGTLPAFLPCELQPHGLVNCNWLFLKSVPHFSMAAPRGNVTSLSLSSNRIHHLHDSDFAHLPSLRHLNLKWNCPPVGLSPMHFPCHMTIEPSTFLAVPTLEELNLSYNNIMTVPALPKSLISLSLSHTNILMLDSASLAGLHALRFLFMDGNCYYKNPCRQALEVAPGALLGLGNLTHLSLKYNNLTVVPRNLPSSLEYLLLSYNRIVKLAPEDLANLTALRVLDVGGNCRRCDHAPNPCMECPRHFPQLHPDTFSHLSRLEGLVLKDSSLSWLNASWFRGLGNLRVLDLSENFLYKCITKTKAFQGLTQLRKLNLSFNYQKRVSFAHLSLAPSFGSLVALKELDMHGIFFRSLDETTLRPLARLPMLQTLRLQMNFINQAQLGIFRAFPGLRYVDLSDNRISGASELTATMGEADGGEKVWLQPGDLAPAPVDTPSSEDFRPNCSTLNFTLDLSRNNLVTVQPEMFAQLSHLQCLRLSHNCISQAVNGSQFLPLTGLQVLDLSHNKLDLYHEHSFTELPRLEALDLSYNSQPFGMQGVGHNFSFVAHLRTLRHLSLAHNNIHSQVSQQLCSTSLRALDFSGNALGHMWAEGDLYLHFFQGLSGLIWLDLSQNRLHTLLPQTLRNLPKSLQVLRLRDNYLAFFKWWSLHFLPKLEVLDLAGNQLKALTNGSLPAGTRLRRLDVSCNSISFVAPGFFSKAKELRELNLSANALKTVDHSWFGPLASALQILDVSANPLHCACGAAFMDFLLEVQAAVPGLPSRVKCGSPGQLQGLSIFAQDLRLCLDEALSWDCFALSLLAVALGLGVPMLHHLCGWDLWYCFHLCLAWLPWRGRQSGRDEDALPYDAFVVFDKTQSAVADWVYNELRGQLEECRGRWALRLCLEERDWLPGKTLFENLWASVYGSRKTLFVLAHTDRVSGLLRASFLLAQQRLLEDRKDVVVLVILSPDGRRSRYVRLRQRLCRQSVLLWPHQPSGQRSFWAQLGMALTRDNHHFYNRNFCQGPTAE
The assay is described as follows: Inhibition of human TLR9 in human B cells (IL-6 ELISA). The class given is cell-based. To be noted: for IC50: human B cells, agonist 1018 ISS 1 μM, IL-6 readout, 48 hours, range about 0.01 to 10 μM, read-out: Human TLR9 IC50; for inhibits TLR9-dependent responses (in words): summary statement of the description. Summed up: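 Primary human B cells (CD19-isolated from donor buffy coats), ~300,000 per well, treated with compound (about 0.01–10 μM, some 0.001–30 μM) then 1 μM CpG oligonucleotide 1018 ISS. After 48 hours at 37° C, supernatant IL-6 measured by ELISA; IC50 from concentration-response of TLR9-dependent activity.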

For `Cc1ccc(-n2nc3c(N4CCC(CCC(=O)NCCN(C)C)CC4)nnc(C)c3c2C)cc1` [Compound No. 9, 3-(1-(3,4-dimethyl-2-(p-tolyl)-2H-pyrazolo[3,4-d]pyridazin-7-yl)piperidin-4-yl)-N-(2-(dimethylamino)ethyl)propanamide], the IC50 (in general, the concentration that gives 50% inhibition) was more than 10 µM at human TLR7 and 0.003 µM on human TLR9.
`Cc1ccc(-n2nc3c(N4CCC(C(=O)NCCCN(C)C)CC4)nnc(C)c3c2C)cc1` [Compound No. 5, 1-(3,4-dimethyl-2-(p-tolyl)-2H-pyrazolo[3,4-d]pyridazin-7-yl)-N-(3-(dimethylamino)propyl)piperidine-4-carboxamide] had a 50% inhibitory concentration (IC50) on human TLR7 of 2.23 µM. In addition, on human TLR9, the 50% inhibitory concentration (IC50) was determined as 0.04 µM and the “inhibits TLR9-dependent responses (in words)” value is given as “inhibit”.
In the case of `Cc1ccc(-n2nc3c(N4CCC(C(=O)NC5CN(Cc6ccccc6)C5)CC4)nnc(C)c3c2C)cc1` [Compound No. 4, N-(1-benzylazetidin-3-yl)-1-(3,4-dimethyl-2-(p-tolyl)-2H-pyrazolo[3,4-d]pyridazin-7-yl)piperidine-4-carboxamide], the concentration for half-maximal inhibition (IC50) at human TLR7 amounted to 3.36 µM. Further, on human TLR9, the IC50 came out at 0.093 µM and the “inhibits TLR9-dependent responses (in words)” value was “inhibit”.
As to `Cc1ccc(-n2nc3c(N4CCC(C(=O)NCC(C)(C)CNc5ccccc5)CC4)nnc(C)c3c2C)cc1` [2-1], the half-inhibitory concentration (IC50) was more than 10 µM at human TLR7 and 4.65 µM on human TLR9.
Regarding `Cc1ccc(-n2nc3c(N4CCC(C(=O)NCCCN(C)Cc5ccccc5)CC4)nnc(C)c3c2C)cc1` [Compound No. 1, N-(3-(benzyl(methyl)amino)propyl)-1-(3,4-dimethyl-2-(p-tolyl)-2H-pyrazolo[3,4-d]pyridazin-7-yl)piperidine-4-carboxamide], at human TLR7, the IC50 was found to be 2.97 µM. Further, at human TLR9, the half-inhibitory concentration (IC50) worked out at 0.04 µM and the “inhibits TLR9-dependent responses (in words)” value is given as “inhibit”.
Take `Cc1ccc(-n2nc3c(N4CCC(C(=O)NCCCc5c[nH]cn5)CC4)nnc(C)c3c2C)cc1` [Compound No. 6, N-(3-(1H-imidazol-4-yl)propyl)-1-(3,4-dimethyl-2-(p-tolyl)-2H-pyrazolo[3,4-d]pyridazin-7-yl)piperidine-4-carboxamide]: the half-inhibitory concentration (IC50) on human TLR7 was more than 10 µM; on human TLR9, 0.154 µM.
With `Cc1ccc(-n2nc3c(N4CCC(C(=O)NC5CN(C)C5)CC4)nnc(C)c3c2C)cc1` [Compound No. 3, 1-(3,4-dimethyl-2-(p-tolyl)-2H-pyrazolo[3,4-d]pyridazin-7-yl)-N-(1-methylazetidin-3-yl)piperidine-4-carboxamide], the IC50 on human TLR9 is 0.143 µM.
On human TLR7, `Cc1ccc(-n2nc3c(N4CCC(C(=O)N5CCN(Cc6ccccc6)CC5)CC4)nnc(C)c3c2C)cc1` [Compound No. 2, (4-benzylpiperazin-1-yl)(1-(3,4-dimethyl-2-(p-tolyl)-2H-pyrazolo[3,4-d]pyridazin-7-yl)piperidin-4-yl)methanone] had an IC50 of 9.93 µM. At human TLR9, the IC50 came out at 0.242 µM and the “inhibits TLR9-dependent responses (in words)” value is on record as “inhibit”.
